Measurements taken from patent publication US9980943B2, “Methods of treating muscular dystrophy” (BOARD OF REGENTS OF THE NEVADA SYSTEM OF HIGHER EDUCATION, …, priority 2013, dated 2018).
Like-named read-outs stand apart in the source and are kept apart here.

Tests used:
Type in all cases: cell-based, mouse
[1] = test system: α7 integrin (LacZ reporter in α7βgal+/− myoblasts); test: Myoblast α7+/LacZ integrin FDG assay (Burkin assay in myoblasts, 96-well); details: α7+/LacZ myoblasts, 96-well; for fold induction at 0.5 µM / fold induction at 1 µM / fold induction at 5 µM / fold induction at 10 µM / fold induction at 20 µM / fold induction at 40 µM: Mus musculus, Myoblast, 48 h
[2] = test system: α7 integrin (LacZ reporter in α7+/LacZ myotubes); test: Myotube α7 integrin FDG assay (Burkin assay in myotubes, 96-well); details: myotubes; for fold induction at 0.5 µM / fold induction at 1 µM / fold induction at 5 µM / fold induction at 10 µM / fold induction at 20 µM / fold induction at 40 µM: Mus musculus, Myotube
[3] = test system: β-galactosidase in CMV-LacZ C2C12 myotubes; test: CMV-LacZ secondary screen in C2C12 myotubes (β-Gal stabilizing assay); details: for CMV-LACZ in Myotubes (β-galactosidase activity relative to DMSO): CMV-LacZ C2C12 myotubes, 96-well format
Outline: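 β-Gal level was the read-out, measured in a clonal C2C12 line expressing LacZ from a CMV promoter. Dose-response curves used six concentrations, 0.5 μM up to 40 μM, with duplicate points.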

[4] = 5 uM, C2C12 CMV-LacZ myotubes, fold relative to DMSO
[5] = 10 uM, C2C12 CMV-LacZ myotubes, fold relative to DMSO
[6] = 20 uM, C2C12 CMV-LacZ myotubes, fold relative to DMSO
[7] = 40 uM, C2C12 CMV-LacZ myotubes, fold relative to DMSO

SMILES	Burkin Assay in Myoblasts, value relative to DMSO ([1]; 0.5 uM)	Burkin Assay in Myoblasts, value relative to DMSO ([1]; 1 uM)	Burkin Assay in Myoblasts, value relative to DMSO ([1]; 5 uM)	Burkin Assay in Myoblasts, value relative to DMSO ([1]; 10 uM)	Burkin Assay in Myoblasts, value relative to DMSO ([1]; 20 uM)	Burkin Assay in Myoblasts, value relative to DMSO ([1]; 40 uM)	Burkin Assay in Myotubes (signal relative to DMSO) ([2]; 0.5 uM)	Burkin Assay in Myotubes (signal relative to DMSO) ([2]; 1 uM)	Burkin Assay in Myotubes (signal relative to DMSO) ([2]; 5 uM)	Burkin Assay in Myotubes (signal relative to DMSO) ([2]; 10 uM)	Burkin Assay in Myotubes (signal relative to DMSO) ([2]; 20 uM)	Burkin Assay in Myotubes (signal relative to DMSO) ([2]; 40 uM)	CMV-LACZ in Myotubes, signal relative to DMSO [3, 4]	CMV-LACZ in Myotubes, signal relative to DMSO [3, 5]	CMV-LACZ in Myotubes, signal relative to DMSO [3, 6]	CMV-LACZ in Myotubes, signal relative to DMSO [3, 7]	CMV-LACZ in Myotubes (β-galactosidase activity relative to DMSO) ([3]; 5 uM)	CMV-LACZ in Myotubes (β-galactosidase activity relative to DMSO) ([3]; 10 uM)	CMV-LACZ in Myotubes (β-galactosidase activity relative to DMSO) ([3]; 20 uM)	CMV-LACZ in Myotubes (β-galactosidase activity relative to DMSO) ([3]; 40 uM)	other results
COC(=O)c1ccc(COC(=O)CNC(=O)c2cccs2)cc1 [MLS001123810-01]	0.9767	0.9524	0.9782	0.9779	0.8853	0.8729	0.974	0.9657	1.417	1.116	0.9515	0.9694	0.8812	0.815	1.159	0.9346	–	–	–	–	–
COc1ccc(NC(=O)c2cccc(N3C(=O)c4ccc(C(=O)Nc5ccc(OC)c(O)c5)cc4C3=O)c2)cc1O [MLS001124732-01]	–	–	–	–	–	–	–	–	–	–	–	–	1.025	1.016	1.07	0.972	–	–	–	–	Burkin Assay in Myoblasts, signal relative to DMSO ([1]; 0.5 uM): 1.121; Burkin Assay in Myoblasts, signal relative to DMSO ([1]; 1 uM): 1.071; Burkin Assay in Myoblasts, signal relative to DMSO ([1]; 5 uM): 0.8622; Burkin Assay in Myoblasts, signal relative to DMSO ([1]; 10 uM): 0.8125; Burkin Assay in Myoblasts, signal relative to DMSO ([1]; 20 uM): 0.6893; Burkin Assay in Myoblasts, signal relative to DMSO ([1]; 40 uM): 0.6581; Burkin Assay in Myotubes, α7 integrin LacZ reporter signal relative to DMSO ([2]; 0.5 uM): 1.0065; Burkin Assay in Myotubes, α7 integrin LacZ reporter signal relative to DMSO ([2]; 1 uM): 1.029; Burkin Assay in Myotubes, α7 integrin LacZ reporter signal relative to DMSO ([2]; 5 uM): 0.8759; Burkin Assay in Myotubes, α7 integrin LacZ reporter signal relative to DMSO ([2]; 10 uM): 0.8964; Burkin Assay in Myotubes, α7 integrin LacZ reporter signal relative to DMSO ([2]; 20 uM): 0.8719; Burkin Assay in Myotubes, α7 integrin LacZ reporter signal relative to DMSO ([2]; 40 uM): 0.7888
COc1cc(NC(=O)C2C3C=CC(C3)C2C(=O)O)ccc1NC(=O)c1ccccc1 (stereo not shown) [MLS001125488-01]	–	–	–	–	–	–	–	–	–	–	–	–	–	–	–	–	–	–	–	–	fold induction at 0.5 µM ([1]; 0.5 uM, read-out: Burkin Assay in Myoblasts, signal relative to DMSO): 0.933; fold induction at 1 µM ([1]; 1 uM, read-out: Burkin Assay in Myoblasts, signal relative to DMSO): 0.976; fold induction at 5 µM ([1]; 5 uM, read-out: Burkin Assay in Myoblasts, signal relative to DMSO): 0.99; fold induction at 10 µM ([1]; 10 uM, read-out: Burkin Assay in Myoblasts, signal relative to DMSO): 0.879; fold induction at 20 µM ([1]; 20 uM, read-out: Burkin Assay in Myoblasts, signal relative to DMSO): 0.907; fold induction at 40 µM ([1]; 40 uM, read-out: Burkin Assay in Myoblasts, signal relative to DMSO): 0.923; fold induction at 0.5 µM ([2]; 0.5 uM, read-out: Burkin Assay in Myotubes, α7 integrin LacZ reporter signal relative to DMSO): 1.03; fold induction at 1 µM ([2]; 1 uM, read-out: Burkin Assay in Myotubes, α7 integrin LacZ reporter signal relative to DMSO): 1.15; fold induction at 5 µM ([2]; 5 uM, read-out: Burkin Assay in Myotubes, α7 integrin LacZ reporter signal relative to DMSO): 1.12; fold induction at 10 µM ([2]; 10 uM, read-out: Burkin Assay in Myotubes, α7 integrin LacZ reporter signal relative to DMSO): 1.32; fold induction at 20 µM ([2]; 20 uM, read-out: Burkin Assay in Myotubes, α7 integrin LacZ reporter signal relative to DMSO): 1.14; fold induction at 40 µM ([2]; 40 uM, read-out: Burkin Assay in Myotubes, α7 integrin LacZ reporter signal relative to DMSO): 1.22; fold induction at 5 µM ([3]; Mus musculus, C2C12, read-out: CMV-LACZ in Myotubes, signal relative to DMSO, 5 uM, C2C12 CMV-LacZ myotubes, fold relative to DMSO): 0.747; fold induction at 10 µM ([3]; Mus musculus, C2C12, read-out: CMV-LACZ in Myotubes, signal relative to DMSO, 10 uM, C2C12 CMV-LacZ myotubes, fold relative to DMSO): 0.968; fold induction at 20 µM ([3]; Mus musculus, C2C12, read-out: CMV-LACZ in Myotubes, signal relative to DMSO, 20 uM, C2C12 CMV-LacZ myotubes, fold relative to DMSO): 1.18; fold induction at 40 µM ([3]; Mus musculus, C2C12, read-out: CMV-LACZ in Myotubes, signal relative to DMSO, 40 uM, C2C12 CMV-LacZ myotubes, fold relative to DMSO): 0.872
Cc1ccc(S(=O)(=O)N2CN(CC3CCCO3)c3nc4ccccc4nc32)c(C)c1 (stereo not shown) [MLS001139288-01]	–	–	–	–	–	–	–	–	–	–	–	–	1.247	1.047	1.096	1.0825	–	–	–	–	Burkin Assay in Myoblasts, signal relative to DMSO ([1]; 0.5 uM): 0.9823; Burkin Assay in Myoblasts, signal relative to DMSO ([1]; 1 uM): 0.9709; Burkin Assay in Myoblasts, signal relative to DMSO ([1]; 5 uM): 0.8634; Burkin Assay in Myoblasts, signal relative to DMSO ([1]; 10 uM): 0.9225; Burkin Assay in Myoblasts, signal relative to DMSO ([1]; 20 uM): 1.085; Burkin Assay in Myoblasts, signal relative to DMSO ([1]; 40 uM): 0.9336; Burkin Assay in Myotubes, α7 integrin LacZ reporter signal relative to DMSO ([2]; 0.5 uM): 0.9234; Burkin Assay in Myotubes, α7 integrin LacZ reporter signal relative to DMSO ([2]; 1 uM): 0.8525; Burkin Assay in Myotubes, α7 integrin LacZ reporter signal relative to DMSO ([2]; 5 uM): 0.9829; Burkin Assay in Myotubes, α7 integrin LacZ reporter signal relative to DMSO ([2]; 10 uM): 0.9777; Burkin Assay in Myotubes, α7 integrin LacZ reporter signal relative to DMSO ([2]; 20 uM): 1.313; Burkin Assay in Myotubes, α7 integrin LacZ reporter signal relative to DMSO ([2]; 40 uM): 0.7808
COc1ccc(S(=O)(=O)N2CCN(C(=O)C3CCC3)CC2)cc1 [MLS001139515-01]	0.9225	0.9852	1.053	1.16	0.8336	0.8527	0.9636	1.009	1.013	0.9488	1.124	1.013	–	–	–	–	0.9404	0.7604	0.9237	0.9601	–
COc1ccc(C(=O)N/C(=C/c2cccnc2)C(=O)N2CCN(C)CC2)cc1OC [MLS001140657-01]	0.9918	0.962	0.9528	0.8768	0.8568	0.7978	1.034	0.9506	1.083	0.9981	0.9948	0.9708	–	–	–	–	1.053	1.046	1.05	1.075	–
COCCn1c(=N)c(S(=O)(=O)c2ccc(Br)cc2)cc2c(=O)n3ccccc3nc21 [MLS001141113-01]	–	–	–	–	–	–	–	–	–	–	–	–	–	–	–	–	1.134	1.383	0.9823	1.913	fold induction at 0.5 µM ([1]; 0.5 uM, read-out: Burkin Assay in Myoblasts, value relative to DMSO): 1.23; fold induction at 1 µM ([1]; 1 uM, read-out: Burkin Assay in Myoblasts, value relative to DMSO): 1.06; fold induction at 5 µM ([1]; 5 uM, read-out: Burkin Assay in Myoblasts, value relative to DMSO): 1.08; fold induction at 10 µM ([1]; 10 uM, read-out: Burkin Assay in Myoblasts, value relative to DMSO): 1.07; fold induction at 20 µM ([1]; 20 uM, read-out: Burkin Assay in Myoblasts, value relative to DMSO): 0.915; fold induction at 40 µM ([1]; 40 uM, read-out: Burkin Assay in Myoblasts, value relative to DMSO): 0.56; fold induction at 0.5 µM ([2]; 0.5 uM, read-out: Burkin Assay in Myotubes (signal relative to DMSO)): 1.04; fold induction at 1 µM ([2]; 1 uM, read-out: Burkin Assay in Myotubes (signal relative to DMSO)): 0.854; fold induction at 5 µM ([2]; 5 uM, read-out: Burkin Assay in Myotubes (signal relative to DMSO)): 1.05; fold induction at 10 µM ([2]; 10 uM, read-out: Burkin Assay in Myotubes (signal relative to DMSO)): 0.929; fold induction at 20 µM ([2]; 20 uM, read-out: Burkin Assay in Myotubes (signal relative to DMSO)): 0.887; fold induction at 40 µM ([2]; 40 uM, read-out: Burkin Assay in Myotubes (signal relative to DMSO)): 0.812
